The values below come from US9157064B2, “Methods for generating inner ear cells in vitro” (The Board of Trustees of the Leland Stanford Junior …, priority 2011, dated 2015).

For assay [1], the system named is ESC- and iPSC-derived cells. Description: Differentiation cultures of D/S/I and bFGF-treated ESC- and iPSC-derived cells with added supplements. The note with it: differentiation cultures supplemented, data not shown. It is filed as cell-based, mouse. From the text:
Future identification of these signals could provide important clues about the mechanisms controlling the initiation of hair bundle growth during embryonic development.
Beside FGF signaling, activation of the canonical Wnt pathway has been proposed to further promote otic commitment of Pax2-expressing cells of the FGF-dependent pre-otic field of the chicken embryo (Ohyama et al., 2006).

Assay [2] relates to ESC-derived embryoid bodies. Kind of assay: Suppression of meso- and endodermal differentiation in ESC-derived embryoid bodies (Brachyury/GATA6 immunostaining). It is filed as cell-based, mouse. The note with it: single factor. The method, then: ES cell line C9 and iPS cell line #25-5 were used for all guidance experiments. MEF feeder cells were removed either by weaning the cells off for several passages or by pre-culturing the cells for 40 min allowing MEFs to attach. For embryoid body formation, the cells were dissociated with 0.25% trypsin-EDTA (Invitrogen) and cultured in poly(2-hydroxyethyl methacrylate)-coated 6-well cell suspension plates (Greiner). Coating was done by covering the plates with 1 ml of 2% poly(2 hydroxyethyl methacrylate) (Sigma) solution in 1:1 ethanol/acetone. After 2 min, the solution was completely aspirated and the plates were dried with open lid for 20 min in a cell culture cabinet. After three washes with PBS, the ES and iPS cells were added at a density of 50 cells/ml and cultured for 5 days in DMEM (Invitrogen) with 15% FBS, 0.1 mM MEM non-essential amino acids, […] 2-mercaptoethanol, 2 mM L-glutamine and […] ampicillin. For otic induction experiments, the following growth factors or reagents were added to the medium: recombinant mouse Dickkopf related protein 1 (Dkk-1) at 100 ng/ml (R&D Systems), SIS3 at […] (Sigma), and IGF1 at 10 ng/ml (Sigma). […]
(§1) For immunocytochemistry, the cells were fixed with 4% paraformaldehyde in PBS for 15 min at room temperature. […] Images were acquired with a Zeiss Axioimager/LSM 5 Exciter fluorescence and confocal microscope. […]

For the next assay, the system named is ESC-derived cultures. Kind of assay: Otic induction of ESC-derived embryoid body cultures (Pax2 immunostaining). It is filed as cell-based, mouse. The note with it: D/S/I-treated ESC-derived embryoid body cells; SU5402 treatment between d5 and d8. How it is done:
Embryoid bodies were transferred into fibronectin-coated 4-well dishes (Greiner) at 30 embryoid bodies per well and cultured for three days in DMEM/F12 (Invitrogen, mixed 1:1) supplemented with N2 and B27 (Invitrogen), bFGF (R&D Systems, 25 ng/ml), heparin sulfate (Sigma, 50 ng/ml), and ampicillin ([…]). FGF3 (recombinant human FGF-3, R&D Systems) and FGF10 (recombinant human FGF-10, R&D Systems) were used at 25 ng/ml in parallel experiments. The FGF receptor antagonist SU5402 (a gift from Pfizer R&D) was used at […]. After FGF-treatment, the cells were detached using 0.05% trypsin/EDTA (Sigma) in PBS, mildly triturated, and passed 1:10 into individual wells of 4-well dishes coated with either fibronectin, gelatin, MEFs, or mitotically inactivated embryonic (E18) chicken utricle stromal cells. Utricle stromal cells were prepared from 20 utricles whose sensory epithelia were removed after 40 min treatment with 0.5 mg/ml thermolysin (Sigma) in DMEM/F12 at 37 C. After addition of 5% serum, the sensory epithelia were removed and used in unrelated experiments. […]
as §1

The subject of a further assay is hESCs. Description: Otic induction from hESCs (PAX2-expressing otic progenitor cells). It is filed as cell-based, human. The note with it: hESC-derived cultures; factor added in the induction and/or stabilization phase (FIG. 23). How it is done:
FIG. 22. Optimization of lengths of incubations with factors for culturing cell populations comprising otic progenitor cells from hESCs. (a) and (b). A culture that is enriched 8.3% for PAX2-expressing otic progenitor cells may be generated by the incubation of hESCs with DKK1/SIS3/IFG-1 for 5 days, followed by incubation of the resultant embryoid bodies comprising preplacodal ectodermal cells with bFGF for 3 days.
FIG. 23A-C. Culturing in the presence of different factors impacts the proportion of otic progenitor cells produced. (a) Culturing in the presence of BMP4 reduces the proportion of otic progenitor cells produced. (b) Culturing in the presence of Noggin during the induction phase of otic progenitor cell fate acquisition, and restricting the exposure of cells to BMP4 to the stabilization phase of otic progenitor cell fate acquisition increases the proportion of otic progenitor cells produced. (c) Culturing in the presence of R-spondin 1 during the induction phase of otic progenitor cell fate acquisition increases the proportion of otic progenitor cells produced.
FIG. 23D. Culturing in the presence of FGF19 during both the induction phase and the stabilization phase of otic progenitor cell fate acquisition increases the proportion of otic progenitor cells produced.

Entries after “also recorded” stand apart in the source; their conditions may differ.

For `[Cl-].[Li+]` [LiCl, reference compound], in assay [1], the “ability or efficiency to generate hair cell-like cells” value is listed as “did not observe an increase”.

`COc1cc2c(cc1OC)CN(C(=O)/C=C/c1c(-c3ccccc3)n(C)c3ncccc13)CC2` [SIS3, reference compound]: the “number of Brachyury-positive cells, factor alone” value in assay [2] is listed as “significantly reduced”. Consider `Cc1c[nH]c(/C=C2\C(=O)Nc3ccccc32)c1CCC(=O)O` [SU5402], for which the “Pax2 induction / Pax2 expression” value with ESC-derived cultures was “abolishment of Pax2 induction; also recorded: virtually diminished Pax2 expression”. Consider “FGF19: fibroblast growth factor 19, ligand for FGFR4”, for which the “proportion of otic progenitor cells produced” value (“proportion” for short) in the assay on hESCs was “increases”.

B1: BMP4: activator of BMP signaling (protein, UniProt P12644 293-408, looked up)
Bone morphogenetic protein 4: SPKHHSQRARKKNKNCRRHSLYVDFSDVGWNDWIVAPPGYQAFYCHGDCPFPLADHLNSTNHAIVQTLVNSVNSSIPKACCVPTELSAISMLYLDEYDKVVLKNYQEMVVEGCGCR
For B1, the “proportion” value in the assay on hESCs is given as “reduces”.

B2: Noggin: naturally occurring inhibitor of BMP signaling (protein, UniProt Q13253 28-232, looked up)
Noggin: QHYLHIRPAPSDNLPLVDLIEHPDPIFDPKEKDLNETLLRSLLGGHYDPGFMATSPPEDRPGGGGGAAGGAEDLAELDQLLRQRPSGAMPSEIKGLEFSEGLAQGKKQRLSKKLRRKLQMWLWSQTFCPVLYAWNDLGSRFWPRYVKVGSCFSKRSCSVPEGMVCKPSKSVHLTVLRWRCQRRGGQRCGWIPIQYPIISECKCSC
Turning to B2, the “proportion” value in the assay on hESCs was “increases”.

B3: Wnt3a: recombinant Wnt3a (protein, UniProt P56704 19-352, looked up)
Protein Wnt-3a: SYPIWWSLAVGPQYSSLGSQPILCASIPGLVPKQLRFCRNYVEIMPSVAEGIKIGIQECQHQFRGRRWNCTTVHDSLAIFGPVLDKATRESAFVHAIASAGVAFAVTRSCAEGTAAICGCSSRHQGSPGKGWKWGGCSEDIEFGGMVSREFADARENRPDARSAMNRHNNEAGRQAIASHMHLKCKCHGLSGSCEVKTCWWSQPDFRAIGDFLKDKYDSASEMVVEKHRESRGWVETLRPRYTYFKVPTERDLVYYEASPNFCEPNPETGSFGTRDRTCNVSSHGIDGCDLLCCGRGHNARAERRREKCRCVFHWCCYVSCQECTRVYDVHTCK
For the molecule B3, the “ability or efficiency to generate hair cell-like cells” value in assay [1] is “did not observe an increase”.

B4: R-spondin 1: Roof plate-specific Spondin 1, natural enhancer of the canonical Wnt pathway (protein, UniProt Q2MKA7 21-263, looked up)
R-spondin-1: SRGIKGKRQRRISAEGSQACAKGCELCSEVNGCLKCSPKLFILLERNDIRQVGVCLPSCPPGYFDARNPDMNKCIKCKIEHCEACFSHNFCTKCKEGLYLHKGRCYPACPEGSSAANGTMECSSPAQCEMSEWSPWGPCSKKQQLCGFRRGSEERTRRVLHAPVGDHAACSDTKETRRCTVRRVPCPEGQKRRKGGQGRRENANRNLARKESKEAGAGSRRRKGQQQQQQQGTVGPLTSAGPA
On to B4, for which the “proportion” value in the assay on hESCs is on record as “increases”.
